From the supplement of paper PMC10307832

How the values were obtained:
Assay in all cases: relative viability (nuclei count vs DMSO), 5 days (fraction); higher = more cells survive
[1] = compound: CC1=CN2C(=O)C=C(N=C2C(=C1)C(C)NC3=CC=CC=C3)N4CCOCC4 [TGX 221] + CS(=O)(=O)N1CCN(Cc2cc3nc(-c4cccc5[nH]ncc45)nc(N4CCOCC4)c3s2)CC1 [Pictilisib] (partner 1 µM)
Summary of the method: (§1)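 Each reported value is a median over duplicate plates. It expresses relative viability: treated-well nuclei count divided by vehicle-well nuclei count. Lung cancer cell lines in 1536-well plates were dosed by pin tool a day after seeding, alone with one drug or with a fixed anchor-drug dose plus five library-drug doses (not always all listed) in √10 steps, and nuclei were counted after 5 days.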

[2] = compound: C1=CC=C(C(=C1)C2=CC=C(C=C2)C3=CSC4=C3C(=C(C(=O)N4)C#N)O)O + C[C@@H](Oc1cc(-c2cnn(C3CCNCC3)c2)cnc1N)c1c(Cl)ccc(F)c1Cl [Crizotinib] (partner 1 µM)
Summary of the method: as §1

[3] = compound: CC1=CN2C(=O)C=C(N=C2C(=C1)C(C)NC3=CC=CC=C3)N4CCOCC4 [TGX 221] + O=C(c1cc(Cc2n[nH]c(=O)c3ccccc23)ccc1F)N1CCN(C(=O)C2CC2)CC1 [Olaparib] (partner 8 µM)
Summary of the method: as §1

[4] = compound: C1=CC=C(C(=C1)C2=CC=C(C=C2)C3=CSC4=C3C(=C(C(=O)N4)C#N)O)O + CC(=O)Nc1cccc(-n2c(=O)n(C3CC3)c(=O)c3c(Nc4ccc(I)cc4F)n(C)c(=O)c(C)c32)c1 [Trametinib] (partner 0.02 µM)
Summary of the method: as §1

Cell Line	relative viability ([1]; first compound 0.08 µM)	relative viability ([1]; first compound 0.253 µM)	relative viability ([1]; first compound 0.8 µM)	relative viability ([1]; first compound 2.53 µM)	relative viability ([1]; first compound 8 µM)	relative viability ([2]; first compound 0.08 µM)	relative viability ([2]; first compound 0.253 µM)	relative viability ([2]; first compound 0.8 µM)	relative viability ([2]; first compound 2.53 µM)	relative viability ([2]; first compound 8 µM)	relative viability ([3]; first compound 0.08 µM)	relative viability ([3]; first compound 0.253 µM)	relative viability ([3]; first compound 0.8 µM)	relative viability ([3]; first compound 2.53 µM)	relative viability ([3]; first compound 8 µM)	relative viability ([4]; first compound 0.08 µM)	relative viability ([4]; first compound 0.253 µM)	relative viability ([4]; first compound 0.8 µM)	relative viability ([4]; first compound 2.53 µM)	relative viability ([4]; first compound 8 µM)
NCI-H650	0.893	0.768	0.831	0.92	0.777	0.713	1.05	0.633	0.703	0.719	0.409	0.359	0.371	0.348	0.334	1.11	1.01	0.991	1.02	0.987
NCI-H661	0.388	0.464	0.403	0.323	0.355	–	1.11	0.94	1.07	0.952	0.743	0.764	0.765	0.748	0.76	0.5	0.573	0.603	0.569	0.501
NCI-H727	0.455	0.464	0.402	0.43	0.356	0.701	0.961	0.864	0.995	0.756	0.681	0.732	0.545	0.679	0.745	0.39	0.373	0.384	0.423	0.331
NCI-H838	0.427	0.364	0.425	0.495	0.404	0.639	1.08	0.892	0.794	0.732	0.758	0.717	0.767	0.634	0.553	0.488	0.485	0.654	0.456	0.331
NCI-H1355	0.444	0.437	0.426	0.362	0.365	1.2	1.16	0.991	1.03	0.841	0.714	0.669	0.718	0.668	0.619	0.484	0.495	0.416	0.432	0.454
NCI-H1437	0.439	0.359	0.473	0.462	0.399	0.699	0.989	0.883	1.01	0.765	0.649	0.589	0.678	0.603	0.632	0.485	0.606	0.534	0.518	0.298
NCI-H1650	0.524	0.524	0.645	0.621	0.508	–	1.16	0.943	1.06	0.919	0.684	0.704	0.954	0.719	0.642	0.639	0.495	0.524	0.597	0.42
NCI-H1651	0.501	0.481	0.584	0.578	0.465	0.878	0.823	0.851	0.878	0.826	0.183	0.199	0.166	0.161	0.18	0.895	0.875	0.809	0.858	0.677
NCI-H1666	0.321	0.375	0.41	0.32	0.418	0.914	1.15	0.731	0.769	1.03	0.751	0.748	0.754	0.727	0.774	0.819	1.13	0.935	0.861	0.803
NCI-H1734	0.452	0.41	0.435	0.377	0.456	0.627	0.703	0.689	0.634	0.444	0.557	0.554	0.616	0.576	0.523	0.57	0.666	0.728	0.669	0.559
NCI-H1755	0.412	0.381	0.406	0.372	0.425	0.74	0.916	0.738	0.97	0.827	0.853	0.843	0.829	0.738	0.68	0.758	0.775	0.8	0.862	0.797
NCI-H1915	0.892	0.895	1	0.805	0.949	0.806	1.05	0.828	0.937	0.65	0.241	0.267	0.284	0.232	0.251	0.304	0.303	0.505	0.314	0.316
NCI-H1944	0.335	0.339	0.361	0.342	0.335	1.08	1.19	1.07	1.23	1.04	–	0.364	0.409	0.371	0.379	0.459	0.396	0.357	0.423	0.434
NCI-H1975	0.282	0.289	0.271	0.229	0.285	0.852	1.03	1.01	1.05	0.721	0.757	0.747	0.802	0.679	0.659	0.348	0.412	0.337	0.311	0.345
NCI-H1993	0.709	0.886	0.759	0.864	0.787	0.794	0.922	0.816	0.776	0.741	0.945	1.02	1.08	0.936	0.938	0.479	0.502	0.495	0.565	0.542
NCI-H2009	0.814	0.746	0.893	0.774	0.662	0.916	1.03	1.01	1.04	0.955	0.685	0.746	0.69	0.639	0.537	0.226	0.268	0.333	0.249	0.295

Cell Line	relative viability ([1]; first compound 0.08 µM)	relative viability ([1]; first compound 0.253 µM)	relative viability ([1]; first compound 0.8 µM)	relative viability ([1]; first compound 2.53 µM)	relative viability ([1]; first compound 8 µM)	relative viability ([2]; first compound 0.08 µM)	relative viability ([2]; first compound 0.253 µM)	relative viability ([2]; first compound 0.8 µM)	relative viability ([2]; first compound 2.53 µM)	relative viability ([2]; first compound 8 µM)	relative viability ([3]; first compound 0.08 µM)	relative viability ([3]; first compound 0.253 µM)	relative viability ([3]; first compound 0.8 µM)	relative viability ([3]; first compound 2.53 µM)	relative viability ([3]; first compound 8 µM)	relative viability ([4]; first compound 0.08 µM)	relative viability ([4]; first compound 0.253 µM)	relative viability ([4]; first compound 0.8 µM)	relative viability ([4]; first compound 2.53 µM)	relative viability ([4]; first compound 8 µM)
NCI-H2023	0.23	0.244	0.252	0.215	0.228	0.546	0.759	0.607	0.701	0.538	0.539	0.411	0.549	0.46	0.405	0.364	0.584	0.708	0.535	0.466
NCI-H2085	0.424	0.444	0.439	0.425	0.46	0.704	0.983	0.859	0.952	0.867	0.802	0.75	0.684	0.536	0.439	0.55	0.772	0.615	0.484	0.598
NCI-H2087	0.989	0.966	0.883	0.811	0.87	0.845	1.04	0.914	1.02	0.825	0.646	0.66	0.501	0.683	0.598	0.283	0.285	0.206	0.208	0.202
NCI-H2126	0.452	0.498	0.488	0.458	0.518	0.921	1.11	1	1.09	0.912	0.927	0.885	0.886	0.813	0.871	0.611	0.51	0.571	0.54	0.476
NCI-H2170	0.312	0.288	0.325	0.376	0.357	1.13	1.34	1.25	1.28	0.888	0.625	0.522	0.625	0.526	0.608	0.87	0.979	0.865	0.986	0.778
NCI-H2228	0.348	0.452	0.448	0.282	0.314	0.385	0.505	0.495	0.33	0.392	0.557	0.529	0.471	0.532	0.541	0.342	0.459	0.544	0.458	0.465
NCI-H2347	0.608	0.798	0.433	0.58	0.428	0.717	0.807	0.558	0.658	0.687	0.592	0.563	0.521	0.528	0.457	0.287	0.304	0.243	0.255	0.286
NCI-H2405	0.36	0.499	0.426	0.398	0.366	0.787	0.844	0.855	0.812	0.787	0.803	0.886	0.858	0.801	0.75	0.55	–	0.639	0.601	0.574
NCI-H3122	0.619	0.581	0.635	0.574	0.581	0.317	0.34	0.248	0.271	0.302	0.596	0.625	0.596	0.562	0.643	0.289	0.233	0.223	0.253	0.295
PC-3 [JPC-3]	0.642	0.73	0.772	0.748	0.754	0.986	1.12	0.915	1	0.891	1.12	1.02	1.25	1.06	1.07	0.756	0.789	0.683	0.701	0.692
PC-14	0.695	0.61	0.612	0.685	0.625	0.851	0.859	0.869	1.02	0.907	0.249	0.265	0.262	0.222	0.252	0.758	0.925	0.912	0.792	0.623
RERF-LC-KJ	0.488	0.57	0.551	0.466	0.481	0.875	0.885	0.858	0.86	0.763	0.834	0.756	0.996	0.844	0.874	0.988	0.908	0.917	0.878	0.834
SK-LU-1	0.601	0.536	0.576	0.553	0.568	0.895	0.995	0.837	0.85	0.661	0.453	0.47	0.442	0.42	0.432	0.412	0.408	0.505	0.476	0.426
SK-MES-1	0.406	0.363	0.304	0.328	0.289	1.05	1.05	0.905	1.05	0.951	0.65	0.691	0.744	0.554	0.465	0.588	0.625	0.582	0.554	0.551
SW 1573	0.489	0.458	0.43	0.461	0.467	0.683	0.796	0.897	0.797	0.61	0.48	0.422	0.511	0.406	0.479	0.608	0.522	0.654	0.659	0.434
UMC-11	0.742	0.783	0.787	0.723	0.831	0.547	0.506	0.574	0.487	0.622	0.379	0.503	0.346	0.319	0.338	–	0.649	0.695	0.658	0.551
